Data reported in patent US20110034557A1, “ANTIMICROBIAL COMPOSITIONS AND USES THEREOF” (MODULAR GENETICS, INC., priority 2009, published 2011).
Residues, ends and D or L forms follow the SMILES beside them.

Test system: S. aureus (ATCC 6538)
Test: Disk assay of growth inhibition of S. aureus on agar plates
Type: cell-based, Staphylococcus aureus
Procedure: The ability of FA-Glu to inhibit the growth or kill S. aureus (ATCC 6538) was examined.
S. aureus was grown in liquid culture in either Tryptic Soy Broth (TSB; Sigma), which contains casein peptone 17 g/l, soya peptone 3 g/l, sodium chloride 5 g/l, dipotassium hydrogen phosphate 2.5 g/l, and glucose 2.5 g/l or M9YE (disodium hydrogen phosphate 6 g/l, monopotassium phosphate 3 g/l, sodium chloride 0.5 g/l, ammonium chloride 1 g/l, yeast extract 3 g/l, glucose 5 g/l, and casamino acids 10 g/l) at 30° C. Disk assays were carried out on M9YE plates (M9YE liquid media plus 15 g/l agar) and YPD plates (peptone 20 g/l, yeast extract 10 g/l, glucose 20 g/l, agar 15 g/l). S. aureus was plated out evenly using a sterile cotton swab. Blank Paper disks 6 mm were placed into a sterile container and then different dilutions of FA-Glu (25 ug, 100 ug, 300 ug) that had been re-suspended in a diluted aqueous solution containing ammonium hydroxide (pH 10.2) were added to the disks. The disks were allowed to absorb and dry. Using sterile tweezers, the disks were placed onto the plates that had been swabbed with Staphylococcus aureus. They were then incubated at 28° C. over approximately 65 hours.
Disk assays were repeated as above using a commercially available acyl amino acid, cocoyl glutamate (Ajinomoto, Japan).

Molecule	halo formation around disk (control experiment) (300 ug absorbed onto a disk)	regrowth in halos (disk assay plates)	halo formation around disk (disk assays repeated as above)	halo size relative to FA-Glu (same concentration and same conditions as FA-Glu)
CC(C)CCCCCCCCC[C@@H]1CC(=O)N[C@@H](CCC(=O)O)C(=O)N[C@@H](CC(C)C)C(=O)N[C@H](CC(C)C)C(=O)N[C@@H](C(C)C)C(=O)N[C@@H](CC(=O)O)C(=O)N[C@H](CC(C)C)C(=O)N[C@@H](CC(C)C)C(=O)O1 [surfactin, reference compound] (HELM PEPTIDE1{E.L.[dL].V.D.[dL].L}|CHEM1{[CC(C)CCCCCCCCC[C@H](CC(=O)[*:1])O[*:2]]}$PEPTIDE1,CHEM1,1:R1-1:R1|PEPTIDE1,CHEM1,7:R2-1:R2$$$V2.0)	produced a halo, but there was cell growth within the halo	–	–	–
cocoyl glutamate [reference compound]	–	regrowth occurred	produced a halo	larger than halos observed using FA-Glu
